Experimental data: paper PMC11882969 (Nature Communications, 2025)
Values joined by “and” are separate entries in the source; they are usually repeats but may differ in a detail not shown here. Equal values may be shown once. Marks after values point to notes of the source that are not given here.

Key:
[1] = biological target: T1, hCB1 (Homo sapiens, UniProt P21554); assay: Lance Ultra cAMP accumulation assay, CHO cells; type: cell-based; parameters: expressed in transfected cells;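 also: human CB1R stably expressed in CHO cells, ligands co-incubated with forskolin at room temperature, read-out is lowering of forskolin-stimulated cAMP accumulation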
[2] = biological target: T1, hCB1; assay: bioSensAll ebBRET signaling profiling, hCB1; type: cell-based; parameters: host or cells: HEK293SL cells, transient PEI transfection

T1 sequence (P21554 whole entry): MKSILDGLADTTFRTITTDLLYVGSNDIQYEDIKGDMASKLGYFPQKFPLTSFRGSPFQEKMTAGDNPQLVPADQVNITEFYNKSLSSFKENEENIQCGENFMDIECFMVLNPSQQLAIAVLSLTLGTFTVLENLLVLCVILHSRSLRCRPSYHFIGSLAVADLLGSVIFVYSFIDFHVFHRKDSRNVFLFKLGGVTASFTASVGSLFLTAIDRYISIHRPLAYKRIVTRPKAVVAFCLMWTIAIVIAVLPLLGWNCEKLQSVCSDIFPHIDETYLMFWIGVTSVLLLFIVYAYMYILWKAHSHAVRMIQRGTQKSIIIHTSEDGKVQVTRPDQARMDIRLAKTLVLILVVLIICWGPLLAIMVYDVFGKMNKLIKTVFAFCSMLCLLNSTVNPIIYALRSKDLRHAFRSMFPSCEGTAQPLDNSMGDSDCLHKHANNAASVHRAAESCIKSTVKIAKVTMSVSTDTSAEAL

Q: What does the source list for `COC(=O)C(C)(NC(=O)c1cc(C)n(-c2cccc(C(F)(F)F)c2)n1)c1cccs1` (centres unmarked) [‘4042]?
A: EC50 [1]: 3.3 nM; Lance Ultra cAMP pEC50 [1]: 8.5 [8.3 – 8.7]; Emax ([1]; CHO): 78%; Barr2+GRK2 hCB1 ([2]; Log [Compound] (M) -4.22186): 92.62* and 120.7*; G13 hCB1 ([2]; Log [Compound] (M) -4.22186): 70.6599; G15 hCB1 ([2]; Log [Compound] (M) -4.22186): 109.73 and 102.131; Gi1 hCB1 ([2]; Log [Compound] (M) -4.22186): 104.966 and 104.552 and 101.354; Gi2 hCB1 ([2]; Log [Compound] (M) -4.22186): 114.417 and 105.522; GoB hCB1 ([2]; Log [Compound] (M) -4.22186): 107.662 and 102.746 and 100.082; Gq hCB1 ([2]; Log [Compound] (M) -4.22186): 1205; Gs hCB1 ([2]; Log [Compound] (M) -4.22186): 6574; Barr2+GRK2 hCB1 ([2]; Log [Compound] (M) -4.63927): 82.3587 and 72.7006; G13 hCB1 ([2]; Log [Compound] (M) -4.63927): 46.7858 and 87.1754; G15 hCB1 ([2]; Log [Compound] (M) -4.63927): 108.775 and 92.8459; Gi1 hCB1 ([2]; Log [Compound] (M) -4.63927): 101.502 and 110.826 and 98.3137; Gi2 hCB1 ([2]; Log [Compound] (M) -4.63927): 122.075 and 85.154; GoB hCB1 ([2]; Log [Compound] (M) -4.63927): 110.056 and 106.901 and 98.7991; Gq hCB1 ([2]; Log [Compound] (M) -4.63927): 1175; Gs hCB1 ([2]; Log [Compound] (M) -4.63927): 6296; Gz hCB1 ([2]; Log [Compound] (M) -4.63927): 112.813 and 91.1447; Barr2+GRK2 hCB1 ([2]; Log [Compound] (M) -5.05788): 70.2312 and 47.6394; G15 hCB1 ([2]; Log [Compound] (M) -5.05788): 113.05 and 88.4535; Gi1 hCB1 ([2]; Log [Compound] (M) -5.05788): 105.528 and 109.408 and 94.1617; Gi2 hCB1 ([2]; Log [Compound] (M) -5.05788): 116.649 and 83.6719; GoB hCB1 ([2]; Log [Compound] (M) -5.05788): 115.498 and 117.852 and 92.0047; Gq hCB1 ([2]; Log [Compound] (M) -5.05788): 1109; Gs hCB1 ([2]; Log [Compound] (M) -5.05788): 6591; Gz hCB1 ([2]; Log [Compound] (M) -5.05788): 89.4695 and 99.3467; G13 hCB1 ([2]; Log [Compound] (M) -5.47381): 42.3393 and 80.0269; G15 hCB1 ([2]; Log [Compound] (M) -5.47381): 106.626 and 91.4256; Gi1 hCB1 ([2]; Log [Compound] (M) -5.47381): 102.594 and 101.052 and 96.5342; Gi2 hCB1 ([2]; Log [Compound] (M) -5.47381): 113.717 and 80.6941; GoB hCB1 ([2]; Log [Compound] (M) -5.47381): 111.936 and 119.903 and 88.1947; Gq hCB1 ([2]; Log [Compound] (M) -5.47381): 1096; Gs hCB1 ([2]; Log [Compound] (M) -5.47381): 6432; Gz hCB1 ([2]; Log [Compound] (M) -5.47381): 99.3173 and 98.4249; Barr2+GRK2 hCB1 ([2]; Log [Compound] (M) -5.89285): 78.4199 and 57.3671; G15 hCB1 ([2]; Log [Compound] (M) -5.89285): 110.351 and 94.8449; Gi1 hCB1 ([2]; Log [Compound] (M) -5.89285): 96.0236 and 103.056 and 95.3776; Gi2 hCB1 ([2]; Log [Compound] (M) -5.89285): 120.967 and 77.6348; GoB hCB1 ([2]; Log [Compound] (M) -5.89285): 107.616 and 111.235 and 93.9859; Gq hCB1 ([2]; Log [Compound] (M) -5.89285): 1179; Gs hCB1 ([2]; Log [Compound] (M) -5.89285): 6305; Gz hCB1 ([2]; Log [Compound] (M) -5.89285): 104.129 and 105.45 and 96.7384; Barr2+GRK2 hCB1 ([2]; Log [Compound] (M) -6.31878): 80.7003 and 54.8939; G15 hCB1 ([2]; Log [Compound] (M) -6.31878): 115.7 and 96.7912; Gi1 hCB1 ([2]; Log [Compound] (M) -6.31878): 96.367 and 108.992 and 101.754; Gi2 hCB1 ([2]; Log [Compound] (M) -6.31878): 121.929 and 79.8783; GoB hCB1 ([2]; Log [Compound] (M) -6.31878): 95.5518 and 109.274 and 88.1947; Gq hCB1 ([2]; Log [Compound] (M) -6.31878): 1143; Gs hCB1 ([2]; Log [Compound] (M) -6.31878): 6312; Gz hCB1 ([2]; Log [Compound] (M) -6.31878): 91.7649 and 96.1616 and 90.8724; Barr2+GRK2 hCB1 ([2]; Log [Compound] (M) -6.72585): 68.6764 and 46.9799; G15 hCB1 ([2]; Log [Compound] (M) -6.72585): 112.142 and 94.2925; Gi1 hCB1 ([2]; Log [Compound] (M) -6.72585): 106.09 and 92.9585 and 96.5936; Gi2 hCB1 ([2]; Log [Compound] (M) -6.72585): 109.48 and 81.9179; GoB hCB1 ([2]; Log [Compound] (M) -6.72585): 86.2761 and 114.112 and 87.3057; Gq hCB1 ([2]; Log [Compound] (M) -6.72585): 1077; Gs hCB1 ([2]; Log [Compound] (M) -6.72585): 6405; Gz hCB1 ([2]; Log [Compound] (M) -6.72585): 96.9343 and 94.4158 and 89.6782; Barr2+GRK2 hCB1 ([2]; Log [Compound] (M) -7.14267): 59.7621 and 50.2774; G15 hCB1 ([2]; Log [Compound] (M) -7.14267): 114.268 and 99.1321; Gi1 hCB1 ([2]; Log [Compound] (M) -7.14267): 107.604 and 101.422 and 97.765; Gi2 hCB1 ([2]; Log [Compound] (M) -7.14267): 109.219 and 83.8759; GoB hCB1 ([2]; Log [Compound] (M) -7.14267): 86.7157 and 119.974 and 89.2869; Gq hCB1 ([2]; Log [Compound] (M) -7.14267): 1043; Gs hCB1 ([2]; Log [Compound] (M) -7.14267): 7002; Gz hCB1 ([2]; Log [Compound] (M) -7.14267): 98.2797 and 100.101 and 88.7145; Barr2+GRK2 hCB1 ([2]; Log [Compound] (M) -7.55284): 52.5063 and 42.0336; G15 hCB1 ([2]; Log [Compound] (M) -7.55284): 113.933 and 98.6587; Gi1 hCB1 ([2]; Log [Compound] (M) -7.55284): 97.1473 and 109.377 and 98.1802; Gi2 hCB1 ([2]; Log [Compound] (M) -7.55284): 110.556 and 82.2578; GoB hCB1 ([2]; Log [Compound] (M) -7.55284): 88.4435 and 120.01 and 87.3057; Gq hCB1 ([2]; Log [Compound] (M) -7.55284): 1071; Gs hCB1 ([2]; Log [Compound] (M) -7.55284): 6586; Gz hCB1 ([2]; Log [Compound] (M) -7.55284): 92.0765 and 86.4032 and 85.0169; Barr2+GRK2 hCB1 ([2]; Log [Compound] (M) -8): 45.4579 and 41.3741; G15 hCB1 ([2]; Log [Compound] (M) -8): 112.381 and 101.184; Gi1 hCB1 ([2]; Log [Compound] (M) -8): 95.7115 and 104.367 and 92.5898; Gi2 hCB1 ([2]; Log [Compound] (M) -8): 103.223 and 88.1181
